This note sets out measurements from US20260014278A1, “HYBRID PEPTIDE DENDRIMER SYSTEMS AND EXTRAHEPATIC DELIVERY” (NUNTIUS THERAPEUTICS LIMITED, priority 2022, published 2026).

The subject of data set [1] is mouse muscle cells (C2c12 cells). Description: eGFP expression in undifferentiated C2c12 cells, coat with or without muscle targeting domain. Type of data set: cell-based. The settings on record: GSCG1,2-RHL N:P=0.6:1, DOTMA/DOPE w/w 10:1, same mole equivalent of coat, 24 hours; FIG. 26. An excerpt: Nanocarrier comprising GSCG1,2-RHL (N:P=0.6:1 to mRNA) with DOTMA/DOPE (w/w=10:1 to mRNA) and mRNA was firstly prepared as described. The nanoparticles were then coated with a dendrimer with a muscle targeting domain, the muscle-G1-EEEE (Ac-EEEE)2[…]-(Acp)-NH2), at different mRNA:coating mole ratios, between 0.5:1 to 5:1, preferably around 2.74:1. As a control, the nanoparticles were coated with a dendrimer without a muscle targeting domain, the G1-EEEE, at different mRNA:coating mole ratios, between 0.5:1 to 5:1, preferably around 2.74:1.
In a first experiment, mouse muscle cells (C2c12 cells) were transfected with formulations comprising mRNA expressing eGFP. The formulations used were comprising GSCG1,2-RHL (N:P=0.6:1 to mRNA) with DOTMA/DOPE (w/w=10:1 to mRNA) and mRNA, and coated with either the same equivalent of mole of dendritic PGA with or without the muscle targeting domain. The cells were harvested 24 hours post-transfection. Control: Cells were not transfected with mRNA. The dendrimer with the muscle targeting domain was (Ac-EEEE)2[…]-(Acp)-NH2 (named “muscle-G1-EEEE”. ASSLNIA, SEQ ID NO:1, is the muscle targeting motif). The dendrimer without the muscle targeting domain was (Ac-EEEE)2[…]-NH2 (“[…]1-EEEE”).

Data set [2] is described as follows: Zeta potential of nanoparticles (electrophoretic light scattering). Format: physicochemical. An excerpt: Zeta potential is a measurement of the magnitude of the electrostatic or charge repulsion/attraction between particles. This can be determined by analysing particle mobility and charge (Zeta potential) using the Electrophoretic Light Scattering (ELS) technique.
Zeta potential is a measurement of the magnitude of the electrostatic or charge repulsion/attraction between particles. This can be determined by analysing particle mobility and charge (Zeta potential) using the Electrophoretic Light Scattering (ELS) technique. […] Parameters: reference material: polystyrene latex, dispersant: water, 25° C. The measurements of the zeta potential were carried out using the Zetasizer Advance Series—Pro (Malvern Panalytical Ltd, Malvern, UK) according to the manufacturer's instructions.

Data set [3] relates to differentiated mouse muscle cells (C2c12 cells). Kind of data set: eGFP expression in differentiated C2c12 cells, coat with or without muscle targeting domain. Format: cell-based. How it is done: In a second experiment, differentiated mouse muscle cells (C2c12 cells) were transfected with formulations comprising mRNA expressing eGFP. The muscle cells were differentiated as follows: C2c12 cells were seeded and allowed to grow to confluence in a growth medium. Once the cells were confluent, the medium on the cells was replaced with a differentiation medium for 2 days to allow the cells to develop myotube characteristics. The differentiation medium was replaced with the growth medium 30 mins before transfection. The cells were transfected for 24 hours with nanocarriers indicated in FIG. 27 and harvested to assay the eGFP reporter gene expression using a plate reader. The mRNA used expressed eGFP. The growth medium contained high glucose DMEM (Gibco), 10% FBS (Gibco), 2 mM L-glutamine (Gibco). The differentiated medium contained high glucose DMEM (Gibco), 2% horse serum (Gibco), 2 mM L-glutamine (Gibco), 1 uM insulin.
As in the first experiment, the formulations used were comprising GSCG1,2-RHL (N:P=0.6:1 to mRNA) with DOTMA/DOPE (w/w=10:1 to mRNA) and mRNA, and coated with either the same equivalent of mole of dendritic PGA with or without the muscle targeting domain. The cells were harvested 24 hours post-transfection. Control: Cells were not transfected with mRNA or transfected with mRNA alone. The dendrimer with the muscle targeting domain was muscle-G1-EEEE. […]

The nature of data set [4]: Dynamic light scattering: hydrodynamic size and polydispersity index (PDI) of nanoparticles. Type of data set: physicochemical. An outline of the steps: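 Hydrodynamic size measured by DLS (Stokes-Einstein), PDI from cumulants fit per ISO 13321/22412. Samples diluted 16× in 25 mM HEPES, water as dispersant, 25° C; PDI measured on dendrimer:nucleic acid 8:1 nanoparticles.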

Data set [5] deals with Mouse muscle cells (C2c12). Kind of data set: eGFP expression (RFU/mg) in C2c12 muscle cells, muscle-targeting dendrimers. Format: cell-based. The settings on record: N:P=0.6:1, DOTMA:DOPE w/w 10:1, 24 hours post-transfection; FIG. 9. The method, then:
Cell lines, transfection reagents and mRNA. C2c12 cells were maintained in DMEM medium with 10% (v/v) FCS and 1% (v/v) L-glutamine in a humidified atmosphere in 5% CO2, and 37° C. The Alexa Fluor 488 tagged mRNA, expressing an eGFP, was purchased from RiboPro. The mRNA either expressing an eGFP or firefly luciferase was purchased from Trilink. DOTMA:DOPE, 1:1 (w/w) were obtained from Invitrogen or Encapsula NanoSciences LLC.
Transfection procedure. 24 hours before transfection, C2c12 cells were seeded in 96well plates in order to reach 70% confluence. mRNA transfection complexes were formed by mixing mRNA with the dendrimers in 25 mM HEPES buffer, then with DOTMA:DOPE in 25 mM HEPES buffer at 25° C. The transfection complexes were then overlaid to the cells in full growth medium. The cells were harvested 4 hours after transfection for FACS analysis or 24 hours post transfection for reporter genes assays.
Two variants (NTX2 and NTX3) of the peptide dendrimer GSCG1,2-RL, 3-LR ((LR)8(KRL)4(KRL)2KGSC-NH2) were made which include the ASSLNIA (SEQ ID NO:1) muscle targeting peptide. Transfection of muscle cells with GSCG1,2-RL, 3-LR, NTX2 ((LR)8(KRL)4(KRL)2[…](Acp)-NH2) or NTX3 ((LR)8(KRL)4(KRL)2[…](Acp)-NH2) was performed using eGFP mRNA and transfection efficiency was assayed using either flow cytometry or the transgene expression assay. […]
Transgene expression assay: The cells were washed twice with PBS and incubated with 50 ul of 1× M-PER lysis buffer (Thermo 11874111). […] 40 ul of lysate from each well was transferred to all black 96 well plates for quantification of eGFP relative fluorescence unit (RFU), absorbance at 535 nm, using Molecular devices SpectraMax iD5.
Protein content determination: The protein content of each cell lysate was determined by mixing the lysate (25 μL) with Pierce™ BCA Protein Assay Kit (200 ul, Thermo Scientific). After 30 minutes of 37° C. incubation in at dark, absorbance was measured at 562 nm with Molecular devices SpectraMax iD5 and converted to protein concentration using a BSA standard curve. […]

Another data set deals with C2c12 muscle cells. Kind of data set: Uptake of Alexa488 labelled mRNA in C2c12 cells, flow cytometry. The conditions noted are these: NTX3 N:P=0.6:1, DOTMA:DOPE w/w 10:1, 4 hours; FIG. 18. Type of data set: cell-based, mouse. The method, then:
FIG. 18. […] Labelled mRNA delivery to cells. Mouse muscle cells (C2c12) took up mRNA labelled with an Alexa488 fluorophore following transfection. The cells were transfected with labelled mRNA alone, labelled mRNA with NTX3 (N:P=0.6:1) and DOTMA:DOPE for 4 hours, and the uptake of the mRNA was measured by flow cytometry. NTX3 is GSCG1,2-RL, 3-LR linked with a muscle cell targeting peptide with 6 histidines. DOTMA:DOPE was used at w/w=10:1 to mRNA.
C2c12 cells were maintained in DMEM medium with 10% (v/v) FCS and 1% (v/v) L-glutamine in a humidified atmosphere in 5% CO2 and 37° C. The Alexa Fluor 488 tagged mRNA, expressing an eGFP, was purchased from RiboPro. 24 hours before transfection, C2c12 cells were seeded in 96 well plates in order to reach 70% confluence. mRNA transfection complexes were formed by mixing mRNA with the dendrimers in 25 mM HEPES buffer, then with DOTMA:DOPE (1:1 w/w) in 25 mM HEPES buffer at 25° C. The transfection complexes (“NTX3”) were then overlaid to the cells in full growth medium. The cells were harvested for FACS analysis 4 hours after transfection. Cells medium and PBS used to wash each well, was collected from each treatment before the addition of […] EDTA in PBS. After 10 minutes of incubation at 37° C., the cells were gently detached from the plates and pelleted down at 400 g for 8 minutes, 4° C. […] Collected data were analysed using FlowJo 10.0 software.
(Flow cytometry measures light scatter and fluorescence of single cells or particles in a stream.)

Where [6] appears, read: GSCG1,2-RHL N:P 0.6:1, DOTMA/DOPE nanoparticles coated at 2.06:1 (dendrimer to mRNA).
The mark [7] stands for this setting: GSCG1,2-RHL N:P 0.6:1, DOTMA/DOPE nanoparticles coated at 2.72:1 (dendrimer to mRNA).

As for “(Ac-EEEE)2KGSCGAASSLNIA-(Acp)-NH2) [muscle-G1-EEEE]”, the “eGFP expression versus coat without muscle targeting domain” value in data set [1] is “dramatic increase in eGFP expression”; in data set [3] (GSCG1,2-RHL N:P=0.6:1, DOTMA/DOPE w/w 10:1, same mole equivalent of coat, 24 hours, FIG. 27) it was “dramatic increase in eGFP expression”. Further, the zeta potential is approximately 38.7 mV in data set [2] (setting [6]) and approximately 44.0 mV in data set [2] (setting [7]). Also, the “mRNA transfection versus nanoparticles coated with dendrimer without the targeting domain” value in data set [3] (coat mole ratio 2.72:1 and 2.06:1 (dendrimer to mRNA)) is reported as “improved mRNA transfection”. In addition, the PDI was found to be 0.15 in data set [4] (setting [6]) and 0.14 in data set [4] (setting [7]). For the same substance, the size was found to be 176 nm in data set [4] (setting [6]) and 172 nm in data set [4] (setting [7]).

Consider “(LR)8(KRL)4(KRL)2KGSCHHHHHHGAASSLNIA(Acp)-NH2 [NTX3]”, for which the “increase in eGFP expression compared to GSCG1,2-RL, 3-LR” value in data set [5] is recorded as “three-fold”. For the same substance, the “cells successfully transfected (uptake of Alexa488 labelled mRNA)” value with C2c12 muscle cells is “approximately 100%”.
